Results from the supplement of paper PMC10307832.

Key:
Test in all cases: relative viability (nuclei count vs DMSO), 5 days (fraction); higher = more cells survive
Motesanib + Decitabine = compound: CC1(C)CNc2cc(NC(=O)c3cccnc3NCc3ccncc3)ccc21 [Motesanib] + Nc1ncn([C@H]2C[C@H](O)[C@@H](CO)O2)c(=O)n1 [Decitabine] (partner 2 µM)
Outline: (§1)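 For relative viability, nuclei counts in treated wells were divided by those in vehicle wells. Lung cancer cell lines had been pin-tool dosed in 1536-well plates the day after seeding and cultured for 5 days, then fixed and stained in one step (final 0.05% Triton X-100, 1% formaldehyde, 1 ug/ml Hoechst) and imaged at 4×. Doses were one drug alone or a fixed anchor-drug dose plus five library-drug doses (not always all listed) in √10 steps, and values are duplicate-plate medians.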

Motesanib + Vorinostat = compound: CC1(C)CNc2cc(NC(=O)c3cccnc3NCc3ccncc3)ccc21 [Motesanib] + O=C(CCCCCCC(=O)Nc1ccccc1)NO [Vorinostat] (partner 1 µM)
Outline: as §1

[1] = compound: C[C@@]1(C(=O)Nc2ccc(F)nc2)CCCN1c1nc(Nc2cc(C3CC3)n[nH]2)c2cccn2n1 + CS(=O)(=O)CCNCc1ccc(-c2ccc3ncnc(Nc4ccc(OCc5cccc(F)c5)c(Cl)c4)c3c2)o1 [Lapatinib] (partner 2 µM)
Outline: as §1

[2] = compound: C[C@@]1(C(=O)Nc2ccc(F)nc2)CCCN1c1nc(Nc2cc(C3CC3)n[nH]2)c2cccn2n1 + Cc1nc(NC(=O)N2CCC[C@H]2C(N)=O)sc1-c1ccnc(C(C)(C)C(F)(F)F)c1 [Alpelisib] (partner 2 µM)
Outline: as §1

Cell Line | relative viability (Motesanib + Decitabine; first compound 0.01 µM) | relative viability (Motesanib + Decitabine; first compound 0.03162 µM) | relative viability (Motesanib + Decitabine; first compound 0.1 µM) | relative viability (Motesanib + Decitabine; first compound 0.3162 µM) | relative viability (Motesanib + Decitabine; first compound 1 µM) | relative viability (Motesanib + Vorinostat; first compound 0.01 µM) | relative viability (Motesanib + Vorinostat; first compound 0.03162 µM) | relative viability (Motesanib + Vorinostat; first compound 0.1 µM) | relative viability (Motesanib + Vorinostat; first compound 0.3162 µM) | relative viability (Motesanib + Vorinostat; first compound 1 µM) | relative viability ([1]; first compound 0.04 µM) | relative viability ([1]; first compound 0.1265 µM) | relative viability ([1]; first compound 0.4 µM) | relative viability ([1]; first compound 1.265 µM) | relative viability ([2]; first compound 0.04 µM) | relative viability ([2]; first compound 0.1265 µM) | relative viability ([2]; first compound 0.4 µM) | relative viability ([2]; first compound 1.265 µM)
HCC-44 | 0.972 | 0.952 | 0.932 | 1.07 | 0.932 | 1.14 | 1.02 | 1.17 | 1.08 | 1.09 | 0.894 | 0.794 | 0.647 | 0.688 | 0.666 | 0.698 | 0.552 | 0.783
HCC-78 | 0.657 | 0.654 | 0.808 |  | 0.817 | 0.429 | 0.467 | 0.494 |  | 0.413 | 0.826 | 0.476 | 0.186 | 0.186 | 0.321 | 0.196 | 0.23 | 0.257
HCC-366 | 0.381 | 0.439 | 0.416 | 0.397 | 0.635 | 0.382 | 0.388 | 0.443 | 0.375 | 0.308 | 1.22 | 0.946 | 1.07 | 0.883 | 0.205 | 0.162 | 0.141 | 0.163
HCC-827 | 0.332 | 0.421 | 0.406 | 0.344 | 0.309 | 0.759 | 0.945 | 0.881 | 0.666 | 0.885 | 0.224 | 0.214 | 0.17 | 0.175 | 0.987 | 1 | 0.93 | 1.01
HOP-62 | 0.179 | 0.233 | 0.573 | 0.608 | 0.774 | 0.668 | 0.677 | 0.599 | 0.972 | 0.799 | 0.978 | 0.907 | 1.05 | 1.04 | 1.04 | 0.843 | 0.897 | 1.11
IA-LM |  |  |  |  |  | 0.91 | 0.936 | 0.953 | 0.935 | 0.767 | 0.702 | 0.935 | 0.647 | 0.601 | 0.83 | 0.674 | 0.69 | 0.698
LC-2-ad | 0.776 | 0.758 | 0.776 | 0.772 | 0.753 | 0.694 | 0.694 | 0.811 | 0.808 | 0.709 | 0.904 | 0.759 | 0.745 | 0.32 | 0.764 | 0.726 | 0.61 | 0.504
LCLC-97TM1 | 0.251 | 0.26 | 0.285 | 0.261 | 0.295 | 0.796 | 0.884 | 0.495 | 0.858 | 0.575 | 0.572 | 0.301 | 0.172 | 0.163 | 0.186 | 0.156 | 0.181 | 0.181
LCLC-103H | 0.774 | 0.729 | 0.833 | 0.815 | 0.759 | 0.756 | 0.843 | 0.815 | 1.02 | 0.762 |  |  |  |  | 1.01 | 0.818 | 0.829 | 1.08
NCI-H441 | 0.271 | 0.307 | 0.502 | 0.514 | 0.478 | 0.527 | 0.697 | 0.7 | 0.764 | 0.792 |  |  |  |  | 0.616 | 0.547 | 0.492 | 0.56
NCI-H522 | 0.615 | 0.675 | 0.639 | 0.725 | 0.691 | 0.89 | 0.927 | 0.92 | 0.909 | 1.05 |  |  |  |  |  |  |  | 
NCI-H1299 |  |  |  |  |  |  |  |  |  |  | 1.01 | 1.03 | 0.964 | 0.967 | 1.11 | 1.05 | 1.07 | 1.09
NCI-H1563 |  |  |  |  |  |  |  |  |  |  | 1.1 | 0.921 | 0.755 | 0.723 | 0.943 | 0.891 | 0.913 | 0.85
NCI-H1648 | 0.498 |  |  | 0.531 | 0.42 | 0.314 |  |  | 0.557 | 0.421 |  |  |  |  |  |  |  | 
NCI-H1650 | 0.53 | 0.352 | 0.445 | 0.546 | 0.564 | 0.642 | 0.6 | 0.714 | 0.67 | 0.571 | 0.894 | 0.679 | 0.656 | 0.402 |  |  |  | 
NCI-H1703 |  |  |  |  |  |  |  |  |  |  | 0.996 | 0.867 | 0.898 |  | 0.485 | 0.266 | 0.28 | 0.3
NCI-H1792 | 0.48 | 0.642 | 0.594 | 0.657 | 0.878 |  |  |  |  |  | 0.82 | 0.412 | 0.546 | 0.696 | 0.618 | 0.538 | 0.58 | 0.686
NCI-H2228 |  |  |  |  |  | 0.667 | 0.539 | 0.737 | 0.528 | 0.612 | 1.18 | 0.721 | 0.908 | 0.578 | 0.709 | 0.518 | 0.533 | 0.529
NCI-H2342 | 0.765 | 0.608 | 0.759 | 0.765 | 0.9 | 0.702 | 0.77 | 0.715 | 0.704 | 0.751 |  |  |  |  |  |  |  | 
SW 900 | 0.58 | 0.475 | 0.632 | 0.677 | 0.749 | 0.542 | 0.404 | 0.574 | 0.649 | 0.59 |  |  |  |  |  |  |  | 
